In US9161990B2, “Hydrochloride salts of a glycopeptide-cephalosporin antbiotic compond” (THERAVANCE BIOPHARMA ANTIBIOTICS IP, LLC, priority 2013, dated 2015):
Counter-ions that a name gives are not always drawn.

Key:
[1] = Storage stability of lyophilized hydrochloride salts (purity by HPLC); assay type: physicochemical; details: for storage stability compared to the trihydrochloride salt: stored for 12 months at either room temperature or 2 to 8° C.
Experimental: (§1) All solvents were HPLC grade and were purchased from Honeywell Burdick & Jackson (Muskegon, Mich. 49442). Phosphoric acid (85% w/w) and sodium dihydrogen phosphate were HPLC grade and were purchased from Fluka (Sigma-Aldrich, St. Louis, Mo. 63103). All reagents were used without further purification.
(§2) Test samples were filtered through a 0.2 μm polyvinylidene fluoride (PVDF) filter before analysis and the first 1 mL was discarded.
(§3) Test sample purity was determined based on the integrated peak area (area-under-the-curve or AUC) for the compound as a percentage of all integrated peaks. The concentration (assay value) of the compound in a test sample was determined by comparison with a reference standard.
(§4) One rack was stored protected from light in a drawer at room temperature and the other rack was stored in a refrigerator at 2 to 8° C. A representative vial of each type of stability sample was analyzed by HPLC after storage for 1, 3, 6 and 12 months to determine purity.

[2] = Storage stability of hydrochloride salts in a lyophilized composition containing sucrose and glycine (purity by HPLC); assay type: physicochemical; details: for Purity (HPLC area percent) / Δ (change in percent purity from time = 0): composition containing sucrose and glycine; for decrease in purity: formulated with sucrose and glycine; for storage stability when formulated with sucrose and glycine: compared to the salt alone
Experimental: as §1, §2, §3, §4

[3] = refrigerated temperature (2 to 8° C.), 1 month, monohydrochloride
[4] = refrigerated temperature (2 to 8° C.), 3 months, monohydrochloride
[5] = refrigerated temperature (2 to 8° C.), 6 months, monohydrochloride
[6] = refrigerated temperature (2 to 8° C.), 12 months, monohydrochloride
[7] = room temperature, 1 month, listed as Mono HCl, monohydrochloride
[8] = room temperature, 1 month, monohydrochloride
[9] = room temperature, 3 months, listed as Mono HCl, monohydrochloride
[10] = room temperature, 3 months, monohydrochloride
[11] = room temperature, 6 months, listed as Mono HCl, monohydrochloride
[12] = room temperature, 6 months, monohydrochloride
[13] = room temperature, 12 months, listed as Mono HCl, monohydrochloride
[14] = room temperature, 12 months, monohydrochloride
[15] = stored at 2 to 8° C. for 12 months, listed as monohydrochloride salt, monohydrochloride
[16] = stored at room temperature for 12 months, listed as monohydrochloride salt, monohydrochloride
[17] = stored at room temperature for 12 months
[18] = refrigerated temperature (2 to 8° C.), 1 month, dihydrochloride
[19] = refrigerated temperature (2 to 8° C.), 3 months, dihydrochloride
[20] = refrigerated temperature (2 to 8° C.), 6 months, dihydrochloride
[21] = refrigerated temperature (2 to 8° C.), 12 months, dihydrochloride
[22] = room temperature, 1 month, dihydrochloride
[23] = room temperature, 1 month, listed as Di HCl, dihydrochloride
[24] = room temperature, 3 months, dihydrochloride
[25] = room temperature, 3 months, listed as Di HCl, dihydrochloride
[26] = room temperature, 6 months, dihydrochloride
[27] = room temperature, 6 months, listed as Di HCl, dihydrochloride
[28] = room temperature, 12 months, dihydrochloride
[29] = room temperature, 12 months, listed as Di HCl, dihydrochloride
[30] = stored at 2 to 8° C. for 12 months, listed as dihydrochloride salt, dihydrochloride
[31] = stored at room temperature for 12 months, listed as dihydrochloride salt, dihydrochloride

For `CN[C@H](CC(C)C)C(=O)N[C@H]1C(=O)N[C@@H](CC(N)=O)C(=O)N[C@H]2C(=O)N[C@H]3C(=O)N[C@H](C(=O)N[C@H](C(=O)NCCCO/N=C(\C(=O)N[C@@H]4C(=O)N5C(C(=O)[O-])=C(C[n+]6ccccc6)CS[C@H]45)c4nc(N)sc4Cl)c4cc(O)cc(O)c4-c4cc3ccc4O)[C@H](O)c3ccc(c(Cl)c3)Oc3cc2cc(c3O[C@@H]2O[C@H](CO)[C@@H](O)[C@H](O)[C@H]2O[C@H]2C[C@](C)(N)[C@H](O)[C@H](C)O2)Oc2ccc(cc2Cl)[C@H]1O` [Monohydrochloride, 26-[[[3-[[(Z)-[1-(2-amino-5-chloro-4-thiazolyl)-2-[[(6R,7R)-2-carboxy-8-oxo-3-(pyridiniomethyl)-5-thia-1-azabicyclo[4.2.0]oct-2-en-7-yl]amino]-2-oxoethylidene]amino]oxy]propyl]amino]carbonyl]-26-decarboxyvancomycin monohydrochloride], the “Purity (HPLC area percent)” value [1, 3] was 90.0%, the “Δ (change in percent purity from time = 0)” value [1, 3] was −0.4% and the “Purity (HPLC area percent)” value [1, 4] was 90.2%. The “Δ (change in percent purity from time = 0)” value [1, 4] was −0.2%, the “Δ (change in percent purity from time = 0)” value [1, 5] was 0.0% and the “Purity (HPLC area percent)” value [1, 6] was 87.4%. For the same compound, the “Δ (change in percent purity from time = 0)” value [1, 6] was −3.0%, the “Purity (HPLC area percent)” value [1, 7] was 89.3% and the “Δ (change in percent purity from time = 0)” value [1, 7] was −1.1%. For the same compound, the “Purity (HPLC area percent)” value [1, 8] was 89.3%, the “Δ (change in percent purity from time = 0)” value [1, 8] was −1.1% and the “Purity (HPLC area percent)” value [1, 9] was 82.0%. The “Δ (change in percent purity from time = 0)” value [1, 9] was −8.4%, the “Purity (HPLC area percent)” value [1, 10] was 82.0% and the “Δ (change in percent purity from time = 0)” value [1, 10] was −8.4%. For the same compound, the “Purity (HPLC area percent)” value [1, 11] was 79.9%, the “Δ (change in percent purity from time = 0)” value [1, 11] was −10.5% and the “Purity (HPLC area percent)” value [1, 12] was 79.9%. The “Δ (change in percent purity from time = 0)” value [1, 12] was −10.5%, the “Purity (HPLC area percent)” value [1, 13] was 67.0% and the “Δ (change in percent purity from time = 0)” value [1, 13] was −23.4%. For the same compound, the “Purity (HPLC area percent)” value [1, 14] was 67.0%, the “Δ (change in percent purity from time = 0)” value [1, 14] was −23.4% and the decrease in purity [1, 15] was 3.0%. The decrease in purity [1, 16] was 23.4%, the “storage stability compared to the trihydrochloride salt” value [1] was “significantly more stable than the trihydrochloride salt” and the “Purity (HPLC area percent)” value [2, 3] was 90.7%. The “Δ (change in percent purity from time = 0)” value [2, 3] was 0.3%, the “Purity (HPLC area percent)” value [2, 4] was 88.9% and the “Δ (change in percent purity from time = 0)” value [2, 4] was −1.5%. The “Purity (HPLC area percent)” value [2, 5] was 91.7%, the “Δ (change in percent purity from time = 0)” value [2, 5] was 1.3% and the “Purity (HPLC area percent)” value [2, 6] was 88.5%. The “Δ (change in percent purity from time = 0)” value [2, 6] was −1.9%, the “Purity (HPLC area percent)” value [2, 8] was 89.0% and the “Δ (change in percent purity from time = 0)” value [2, 8] was −1.4%. For the same compound, the “Δ (change in percent purity from time = 0)” value [2, 10] was −3.5%, the “Δ (change in percent purity from time = 0)” value [2, 12] was −2.5% and the “Δ (change in percent purity from time = 0)” value [2, 14] was −8.9%. For the same compound, the decrease in purity [2, 15] was 1.9%, the decrease in purity [2, 16] was 8.9% and the “storage stability when formulated with sucrose and glycine” value [2, 17] was “more stable”.
In the case of `CN[C@H](CC(C)C)C(=O)NC1C(=O)N[C@@H](CC(N)=O)C(=O)N[C@H]2C(=O)N[C@H]3C(=O)N[C@H](C(=O)N[C@H](C(=O)NCCCO/N=C(\C(=O)N[C@@H]4C(=O)N5C(C(=O)[O-])=C(C[n+]6ccccc6)CS[C@H]45)c4nc(N)sc4Cl)c4cc(O)cc(O)c4-c4cc3ccc4O)[C@H](O)c3ccc(c(Cl)c3)Oc3cc2cc(c3O[C@@H]2O[C@H](CO)[C@@H](O)[C@H](O)[C@H]2O[C@H]2C[C@](C)(N)[C@H](O)[C@H](C)O2)Oc2ccc(cc2Cl)[C@H]1O` (stereo partly drawn) [Dihydrochloride, 26-[[[3-[[(Z)-[1-(2-amino-5-chloro-4-thiazolyl)-2-[[(6R,7R)-2-carboxy-8-oxo-3-(pyridiniomethyl)-5-thia-1-azabicyclo[4.2.0]oct-2-en-7-yl]amino]-2-oxoethylidene]amino]oxy]propyl]amino]carbonyl]-26-decarboxyvancomycin dihydrochloride], the “Purity (HPLC area percent)” value [1, 18] is reported as 89.9%, the “Δ (change in percent purity from time = 0)” value [1, 18] is reported as −0.2% and the “Purity (HPLC area percent)” value [1, 19] is reported as 89.4%. For the same compound, the “Δ (change in percent purity from time = 0)” value [1, 19] was −0.7%, the “Δ (change in percent purity from time = 0)” value [1, 20] was 0.7% and the “Purity (HPLC area percent)” value [1, 21] was 87.2%. The “Δ (change in percent purity from time = 0)” value [1, 21] was −2.9%, the “Purity (HPLC area percent)” value ([1]; refrigerated temperature (2 to 8° C.), time 0 months, dihydrochloride) was 90.1% and the “Purity (HPLC area percent)” value [1, 22] was 85.3%. The “Δ (change in percent purity from time = 0)” value [1, 22] was −4.8%, the “Purity (HPLC area percent)” value [1, 23] was 85.3% and the “Δ (change in percent purity from time = 0)” value [1, 23] was −4.8%. The “Purity (HPLC area percent)” value [1, 24] was 82.5%, the “Δ (change in percent purity from time = 0)” value [1, 24] was −7.6% and the “Purity (HPLC area percent)” value [1, 25] was 82.5%. For the same compound, the “Δ (change in percent purity from time = 0)” value [1, 25] was −7.6%, the “Purity (HPLC area percent)” value [1, 26] was 81.4% and the “Δ (change in percent purity from time = 0)” value [1, 26] was −8.7%. The “Purity (HPLC area percent)” value [1, 27] was 81.4%, the “Δ (change in percent purity from time = 0)” value [1, 27] was −8.7% and the “Purity (HPLC area percent)” value [1, 28] was 69.6%. The “Δ (change in percent purity from time = 0)” value [1, 28] was −20.5%, the “Purity (HPLC area percent)” value [1, 29] was 69.6% and the “Δ (change in percent purity from time = 0)” value [1, 29] was −20.5%. For the same compound, the “Purity (HPLC area percent)” value ([1]; room temperature, time 0 months, dihydrochloride) was 90.1%, the “Purity (HPLC area percent)” value ([1]; room temperature, time 0 months, listed as Di HCl, dihydrochloride) was 90.1% and the decrease in purity [1, 30] was 2.9%. For the same compound, the decrease in purity [1, 31] was 20.5%, the “storage stability compared to the trihydrochloride salt” value [1] was “significantly more stable than the trihydrochloride salt” and the “Δ (change in percent purity from time = 0)” value [2, 18] was −0.3%. For the same compound, the “Purity (HPLC area percent)” value [2, 19] was 89.4%, the “Δ (change in percent purity from time = 0)” value [2, 19] was −0.7% and the “Δ (change in percent purity from time = 0)” value [2, 20] was 0.7%. The “Purity (HPLC area percent)” value [2, 21] was 87.2%, the “Δ (change in percent purity from time = 0)” value [2, 21] was −2.9% and the “Δ (change in percent purity from time = 0)” value [2, 22] was −0.8%. The “Δ (change in percent purity from time = 0)” value [2, 24] was −2.9%, the “Δ (change in percent purity from time = 0)” value [2, 26] was 0.2% and the “Δ (change in percent purity from time = 0)” value [2, 28] was −6.8%. For the same compound, the decrease in purity [2, 30] was 2.9%, the decrease in purity [2, 31] was 6.8% and the “storage stability when formulated with sucrose and glycine” value [2, 17] was “more stable”.
